US20080194616A1, “PYRIDOPYRIMIDINONE COMPOUNDS USEFUL IN TREATING SODIUM CHANNEL-MEDIATED DISEASES OR CONDITIONS” (Xenon Pharmaceuticals Inc., priority 2007, published 2008)

What was measured:
sodium channel = assay: Guanidine Influx Assay (In Vitro Assay); type: cell-based, human or rat; conditions: known cell line that expresses a sodium channel; read-out: IC50 Activity Level
Excerpt: This example describes an in vitro assay for testing and profiling test agents against human or rat sodium channels stably expressed in cells of either an endogenous or recombinant origin. The assay is also useful for determining the IC-50 of a sodium channel blocking compound. The assay is based on the guanidine flux assay described by Reddy, N. L., et al., J. Med. Chem. (1998), 41(17):3298-302.
The guanidine influx assay is a radiotracer flux assay used to determine ion flux activity of sodium channels in a high-throughput microplate-based format. The assay uses ^14C-guanidine hydrochloride in combination with various known sodium channel modulators, to assay the potency of test agents. Potency is determined by an IC-50 calculation. Selectivity is determined by comparing potency of the compound for the channel of interest to its potency against other sodium channels (also called ‘selectivity profiling’).
Each of the test agents is assayed against cells that express the channels of interest. Voltage gated sodium channels are either TTX sensitive or insensitive. This property is useful when evaluating the activities of a channel of interest when it resides in a mixed population with other sodium channels. The following Table 1 summarizes cell lines useful in screening for a certain channel activity in the presence or absence of TTX.
Cells expressing the channel of interest are grown according to the supplier or in the case of a recombinant cell in the presence of selective growth media such as G418 (Gibco/Invitrogen). The cells are disassociated from the culture dishes with an enzymatic solution (1×) Trypsin/EDTA (Gibco/Invitrogen) and analyzed for density and viability using haemocytometer (Neubauer). Disassociated cells are washed and resuspended in their culture media then plated into Scintiplates (Beckman Coulter Inc.) (approximately 100,000 cells/well) and incubated at 37° C./5% CO2. for 20-24 hours. After an extensive wash with Low sodium HEPES-buffered saline solution (LNHBSS) (150 mM Choline Chloride, […] (Sigma), 1 mM Calcium Chloride, 5 mM Potassium Chloride, 1 mM Magnesium Chloride, 10 mM Glucose) agents diluted with LNHBSS are added to each well. (Varying concentrations of test agent may be used). The activation/radiolabel mixture contains aconitine (Sigma), and ^14C-guanidine hydrochloride (ARC).
After loading the cells with test agent and activation/radiolabel mixture, the Scintiplates are incubated at ambient temperature. Following the incubation, the Scintplates are extensively washed with LNHBSS supplemented with guanidine (Sigma). The Scintiplates are dried and then counted using a Wallac MicroBeta TriLux (Perkin-Elmer Life Sciences). The ability of the test agent to block sodium channel activity is determined by comparing the amount of ^14C-guanidine present inside the cells expressing the different sodium channels.
IC-50 value of a test agent for a specific sodium channel may be determined using the above general method. IC-50 may be determined using a 3,8,10,12 or 16 point curve in duplicate or triplicate with a starting concentration of 1, 5 or 10 μM diluted serially with a final concentration reaching the sub-nanomolar, nanomolar and low micromolar ranges. Typically the mid-point concentration of test agent is set at 1 μM, and sequential concentrations of half dilutions greater or smaller are applied (e.g. 0.5 μM; […] and 0.25 μM; 10 μM and 0.125 μM; 20 μM etc.). The IC-50 curve is calculated using the 4 Parameter Logistic Model or Sigmoidal Dose-Response Model formula (fit=(A+((B−A)/(1+((C/x)̂D)))).

CHO-K1 = type: cell-based, Chinese Hamster
L6 (rat myoblast cell) = type: cell-based
[1] = system: PC12 (rat pheochromocytoma); type: cell-based
SK-N-BE2C = type: cell-based, human

SMILES	melting point	IC50 (sodium channel)	block of [14C] Guanidine influx (CHO-K1)	block of [14C] Guanidine influx (L6 (rat myoblast cell))	block of [14C] Guanidine influx [1]	block of [14C] Guanidine influx (SK-N-BE2C)
CCCCc1nc2ccccn2c(=O)c1-c1ccc(NC(=O)OC(C)(C)C)cc1 [Example 1.15, tert-butyl 4-(2-butyl-4-oxo-4H-pyrido[1,2-a]pyrimidin-3-yl)phenylcarbamate]	132 to 135 °C	≥ 10 µM				
COc1nc2ccccn2c(=O)c1-c1ccc(Cl)cc1 [Example 1.24, 3-(4-chlorophenyl)-2-methoxy-4H-pyrido[1,2-a]pyrimidin-4-one]	149 to 151 °C	≥ 10 µM				
CCCCc1nc2ccccn2c(=O)c1-c1ccc(N[C@@H]2CCN(C(=O)OC(C)(C)C)C2)cc1C [Example 3.10, (R)-tert-butyl 3-{[4-(2-butyl-4-oxo-4H-pyrido[1,2-a]pyrimidin-3-yl)-3-methylphenyl]amino}pyrrolidine-1-carboxylate]	162 to 168 °C	≥ 10 µM				
COc1nc2ccccn2c(=O)c1-c1ccc(NC2CCN(C(=O)OC(C)(C)C)C2)cc1 (stereo not drawn) [Example 3.19, tert-butyl 3-{[4-(2-methoxy-4-oxo-4H-pyrido[1,2-a]pyrimidin-3-yl)phenyl]amino}pyrrolidine-1-carboxylate]	102 to 104 °C	≥ 10 µM				
CCCNc1nc2ccccn2c(=O)c1-c1ccc(NC2CCN(C(=O)OC(C)(C)C)C2)cc1 (stereo not drawn) [Example 3.21, tert-butyl 3-({4-[4-oxo-2-(propylamino)-4H-pyrido[1,2-a]pyrimidin-3-yl]phenyl}amino)pyrrolidine-1-carboxylate]	187 to 190 °C	≥ 10 µM				
CC(C)Nc1nc2ccccn2c(=O)c1-c1ccc(NC2CCN(C(=O)OC(C)(C)C)C2)cc1 (stereo not drawn) [Example 3.22, tert-butyl 3-[(4-{2-[(1-methylethyl)amino]-4-oxo-4H-pyrido[1,2-a]pyrimidin-3-yl}phenyl)amino]pyrrolidine-1-carboxylate]	210 to 212 °C	≥ 10 µM				
CCCCc1nc2ccccn2c(=O)c1-c1ccc(NC(=O)[C@@H]2CCCN2C(=O)OC(C)(C)C)cc1 [Example 5, (S)-tert-butyl 2-{[4-(2-butyl-4-oxo-4H-pyrido[1,2-a]pyrimidin-3-yl)phenyl]carbamoyl}-pyrrolidine-1-carboxylate]	179 to 187 °C	≥ 10 µM				
CCCCc1nc2ccccn2c(=O)c1-c1ccc(N[C@@H]2CCNC2)cc1.Cl [Example 8, (R)-2-butyl-3-(4-(pyrrolidin-3-ylamino)phenyl)-4H-pyrido[1,2-a]pyrimidin-4-one hydrochloride]	171 to 174 °C	1 to 10 µM				
CCCCc1nc2ccccn2c(=O)c1-c1ccc(O)cc1 [Example 11, 2-butyl-3-(4-hydroxyphenyl)-4H-pyrido[1,2-a]pyrimidin-4-one]	160 °C (dec.)	≥ 10 µM				
CCCCc1nc2ccccn2c(=O)c1-c1ccc(NC(=O)[C@@H]2CCCN2)cc1.Cl [Example 18, (S)—N-[4-(2-butyl-4-oxo-4H-pyrido[1,2-a]pyrimidin-3-yl)phenyl]prolinamide hydrochloride]	179 to 187 °C	≥ 10 µM				
NC1=N[C@H](O)[C@H]2[C@H]3O[C@]4(O)O[C@@H]([C@@H](O)[C@@]2(N1)[C@@H]4O)[C@]3(O)CO [TTX, tetrodotoxin]			Guanidine influx was completely	partially blocked by TTX (Nav1.5	Guanidine influx was completely	TTX partially blocked influx
